Measurements taken from patent US20040082614A1, “Methods of treating infection using anitbiotics and glycogen phosphorylase inhibitors” (Pfizer Inc., priority 2002, published 2004).
Read-outs that look alike come from different tables or passages of the source.

How the values were obtained:
Format in all cases: cell-based
Chlamydia pneumonia [1] = test: Minimum bacteriocidal concentration (MBC) determination in Hep2 cells infected with Chlamydia pneumonia, drugs removed at 72 h, further 72 h; conditions: for reduction of the MBC for azithromycin by the glycogen phosphorylase inhibitor: summary statement, combination with azithromycin
Description: (§1) Hep2 cells maintained in Isocove's Modified Dulbecco's Medium (IMDM) were infected with Chlamydia pneumonia (0.5 MOI for two hours after one hour centrifugation). Cells were then treated with Compound A (0, 5, 10, 20, 30 or 40 μg/ml) or Compound B (0, 5, 10, 20, 30 or 40 μg/ml) alone and/or in combination with azithromycin (Pfizer, Inc., New York, N.Y.) 0, 0.005, 0.0158, 0.050, 0.158, or 0.5 μg/ml). For minimum inhibitory concentration (MIC) determination, cells were terminated for analysis at 72 h after the addition of drugs. For minimum bacteriocidal concentration (MBC) determination, drugs were removed at 72 h post-treatment, the media was replaced, and cells were maintained for an additional 72 h before termination. At termination, cells were analyzed for quantitation of inclusion bodies using fluorescent microscopy, and general cell viability by microscopic visualization.

Chlamydia pneumonia [2] = test: Minimum inhibitory concentration (MIC) determination in Hep2 cells infected with Chlamydia pneumonia, inclusion bodies by fluorescent microscopy; conditions: for antibacterial effects of the combination with azithromycin: MIC and MBC
Description: as §1

Hep2 cells = test: General cell viability / host cell appearance by microscopic visualization
Description: as §1

[3] = Chlamydia, 72 h, drug alone, drugs removed at 72 h, additional 72 h, read-out: MBC
[4] = combined with 5 μg/ml Compound A
[5] = combined with 30 μg/ml Compound B
[6] = Chlamydia, 72 h, drug alone, 72 h after addition of drugs, read-out: MIC

## CC[C@H]1OC(=O)[C@H](C)[C@@H](O[C@H]2C[C@@](C)(OC)[C@@H](O)[C@H](C)O2)[C@H](C)[C@@H](O[C@@H]2O[C@H](C)C[C@H](N(C)C)[C@H]2O)[C@](C)(O)C[C@@H](C)CN(C)[C@H](C)[C@@H](O)[C@]1(C)O [Azithromycin, 9a-aza-9a-methyl-9-deoxo-9a-homoerythromycin A]
Chlamydia pneumonia [1]; [3]
  MBC: 0.5 µg/mL
Chlamydia pneumonia [1]; Chlamydia, combined with 5 μg/ml Compound A, read-out: azithromycin concentration required for MBC
  MBC: 0.158 µg/mL
Chlamydia pneumonia [1]; Chlamydia, combined with 20 μg/ml Compound A, read-out: azithromycin concentration required for MBC
  MBC: 0.05 µg/mL
Chlamydia pneumonia [1]; Chlamydia, combined with 30 μg/ml Compound B, read-out: azithromycin concentration required for MBC
  MBC: 0.158 µg/mL
Chlamydia pneumonia [1]; [4]
  decrease in azithromycin concentration required for MBC: 3 fold
Chlamydia pneumonia [1]; combined with 20 μg/ml Compound A
  decrease in azithromycin concentration required for MBC: 10 fold
Chlamydia pneumonia [1]; [5]
  decrease in azithromycin concentration required for MBC: 3 fold
Chlamydia pneumonia [2]; [6]
  MIC: 0.158 µg/mL
Chlamydia pneumonia [2]; Chlamydia, combined with 5 μg/ml Compound A, read-out: azithromycin concentration required for MIC
  MIC: 0.05 µg/mL
Chlamydia pneumonia [2]; Chlamydia, combined with 10 μg/ml Compound A, read-out: azithromycin concentration required for MIC
  MIC: 0.0158 µg/mL
Chlamydia pneumonia [2]; Chlamydia, combined with 10 μg/ml Compound B, read-out: azithromycin concentration required for MIC
  MIC: 0.05 µg/mL
Chlamydia pneumonia [2]; Chlamydia, combined with 30 μg/ml Compound B, read-out: azithromycin concentration required for MIC
  MIC: 0.0158 µg/mL
Chlamydia pneumonia [2]; [4]
  decrease in azithromycin concentration required for MIC: 3 fold
Chlamydia pneumonia [2]; combined with 10 μg/ml Compound A
  decrease in azithromycin concentration required for MIC: 10 fold
Chlamydia pneumonia [2]; combined with 10 μg/ml Compound B
  decrease in azithromycin concentration required for MIC: 3 fold
Chlamydia pneumonia [2]; [5]
  decrease in azithromycin concentration required for MIC: 10 fold

## O=C(N[C@@H](Cc1ccc(F)cc1)C(=O)N1CCC(O)CC1)c1cc2cc(Cl)ccc2[nH]1 [Compound A, 5-chloro-1H-indole-2-carboxylic acid [(1S)-(4-fluoro-benzyl)-2-(4-hydroxypiperidin-1-yl)-2-oxo-ethyl]-amide]
Hep2 cells; Hep2 host cells
  concentrations associated with changes in host cell appearance: ≥ 30000 ng/mL
Chlamydia pneumonia [1]; [3]
  MBC: 30 µg/mL
Chlamydia pneumonia [1]
  reduction of the MBC for azithromycin by the glycogen phosphorylase inhibitor: 3-10 fold
Chlamydia pneumonia [2]; [6]
  MIC: 20 µg/mL
Chlamydia pneumonia [2]
  antibacterial effects of the combination with azithromycin: synergy of antibacterial effects

## O=C(N[C@@H](Cc1ccccc1)[C@@H](O)C(=O)N1C[C@@H](O)[C@@H](O)C1)c1cc2cc(Cl)ccc2[nH]1 [Compound B]
Hep2 cells
  changes in host cell appearance: not associated with any changes in host cell appearance
Chlamydia pneumonia [1]; drug alone, drugs removed at 72 h, additional 72 h
  MBC: > 40 µg/mL
Chlamydia pneumonia [1]
  reduction of the MBC for azithromycin by the glycogen phosphorylase inhibitor: 3 fold
Chlamydia pneumonia [2]
  antibacterial effects of the combination with azithromycin: synergy of antibacterial effects
Chlamydia pneumonia [2]; drug alone, 72 h after addition of drugs
  MIC: > 40 µg/mL
